Measured values published in patent publication US9468669B2, “Methods to treat dysregulated blood glucose disorders” (REGENTS OF THE UNIVERSITY OF MINNESOTA, priority 2013, dated 2016).

Experiments:
human islets [1] = assay: Sustained high concentration D-serine on human islet survival (1 week culture); format: cell-based; settings: 100 uM NMDA and 500 uM D-serine
Description: (§1) Living islets were isolated from the pancreas of a consenting organ donor via enzymatic digestion and isopycnic density gradient purification as previously described (Balamurugan, A N., et al., (2014) The Islets of Langerhans, 2nd Edition, 1-25). This isolation was performed as a standard procedure by an experienced team at the Schulze Diabetes Institute of the University of Minnesota under GMP conditions. A portion of the total number of isolated islets were granted for these experiments after quality control testing and quantification. Islets were maintained in culture in supplemented Prodo media with a 5.5 mM glucose concentration in a T-flask at 37° C., 5% CO2. Half-volume media changes were performed every 3′^d day.
After conditional incubations (described below), islets were placed in standard media for 2-8 hrs before viability assessment. The viability of islets was assessed by double staining an aliquot of ˜25 islets with acridine orange (stains living cells) and propidium iodide (stains necrotic or apoptotic cells) (Bank, H. L., (1988) In Vitro Cell Dev Biol 24, 266-73). Each islet in the sample was evaluated under a fluorescent microscope and assigned a value for the % of live cells present and those numbers averaged for that sample. 3× samples per condition were assayed each day for 3 consecutive days and on one day in a follow-up experiment 1 week later. […]

human islets [2] = assay: Glucose stimulated insulin release (GSIR); format: cell-based; settings: 100 uM, glucose series
Description: as §1, with “Half-volume media changes were performed every 3′^d day.” left out
After washing to remove culture media, approximate aliquots of 30 islet equivalents (IEQ, islet numbers normalized to an average size of 150 microns) were added to cell strainers immersed in 1.0 mL of 0-glucose solution. […] All well contents, both time 0 and post-stimulation samples, were stored at −80° C. until they could be assessed for insulin content via sandwich ELISA from a standard commercial mouse insulin ELISA kit. Insulin content, post-stimulation concentration minus the time 0 concentration, was normalized to the actual IEQ of each well, which was determined by Pico-green DNA assessment (Papas, K. K., et al., (2007), Am J Transplant 7, 707-13) of cell strainer contents recovered at the end of the final incubation. […]

[3] = Plasma D-serine after acute i.p. administration (capillary electrophoresis); format: in vivo, mice; settings: 2.7 g/kg i.p., 35 and 55 minutes after injection; ethanol 3 g/kg i.p. 15 min after D-serine
Description: The data from FIG. 3 serves as an example of a concentration reference value subject to the time frame and administration technique of the acute hypoglycemia experiments described in FIG. 1. A 20 uL blood sample was collected from the facial vein of mice prior to any treatment (time 0) and 20 and 40 minute intervals after an i.p. injection of ethanol (3 g/kg). A pre-treatment injection of saline (n=9) or D-serine (2.7 g/kg, i.p., n=9) was administered 15 minutes before ethanol such that the reported values also correspond to time 35 and 55 minutes after the pre-injection. These blood samples were assayed for D-serine using capillary electrophoresis, as described in the publication (Lockridge, 2012). Basal levels of plasma D-serine were ˜20 uM with post-injection values rising into the […].

blood glucose [4] = assay: Chronic D-serine drinking, fasted blood glucose, body weight and consumption; format: in vivo, mice of the C57 strain
Description: Mice were fasted for 4-6 hours. The tails were wiped with ethanol and allowed to dry. For a first time test, the tip of the tail was removed with a scissors. For subsequent tests, a needle was used to puncture the tail vein. The first drop of blood was wiped away and then the second drop was placed on a glucometer test strip. A second test was administered immediately and most scores were an average of the two readings. If there was more than a 100 unit discrepancy between the two readings, a third reading was taken and the reported value was an average of the three. Eight adult male mice of the C57 strain were tested in a chronic administration model. Mice were housed 2 per cage, with each cage outfitted with 2 special drinking tubes (50 mL conical+stopper with sipper tube) to minimize the impact of any problems with a single tube. Two cages of mice drank tap water and two cages of mice drank a D-serine solution (12.6 mg/ml in tap water), with solutions replaced every other day. Every other day, the food and drinking bottles were weighed to determine cage-wide consumptive behaviors and the mice were individually weighed. At specified intervals, mice were also tested for core body temperature by rectal probe and for 4-hours fasted blood glucose. All mice started with a week of water drinking. […] After one week, two cages (4 mice) were switched to D-serine solution. […] After this measure, all mice were again switched back to water. […] Both acute weight loss and increased drinking are prominent symptoms of the onset of diabetes.

human islets [5] = assay: Human islet viability (acridine orange / propidium iodide staining); format: cell-based; settings: for islet viability: 100 uM
Description: as §1
After conditional incubations (described below), islets were placed in standard media for 2-8 hrs before viability assessment. The viability of islets was assessed by double staining an aliquot of ˜25 islets with acridine orange (stains living cells) and propidium iodide (stains necrotic or apoptotic cells) (Bank, H. L., (1988) In Vitro Cell Dev Biol 24, 266-73). Each islet in the sample was evaluated under a fluorescent microscope and assigned a value for the % of live cells present and those numbers averaged for that sample. 3× samples per condition were assayed each day for 3 consecutive days and on one day in a follow-up experiment 1 week later. Prior to staining, aliquots were incubated for 60 minutes (FIG. 12, n=2 days) or 90 minutes (FIG. 13, n=2 days) in each solution type used in the GSIR incubations in addition to 100 uM concentrations of D-serine, NMDA or D-serine+NMDA alone (i.e. in 0 glucose). […] On the 3rd day and in a subsequent follow-up experiment, islets were incubated for 90 minutes in the same solutions. In this case, viability was decreased only under those conditions with both the maximum glucose concentration (28 mM) and the addition of NMDA and/or D-serine with the most dramatic loss of viable islet cells (down to 81.1±1.1%) observed in the 28 mM glucose+100 uM NMDA+100 uM D-serine condition (FIG. 13).

blood glucose [6] = assay: Acute D-serine injection, fasted blood glucose by glucometer; format: in vivo, mice of the ddY strain; settings: 2.7 g/kg i.p., 6 h fasted
Description: Mice were fasted for 4-6 hours. The tails were wiped with ethanol and allowed to dry. For a first time test, the tip of the tail was removed with a scissors. For subsequent tests, a needle was used to puncture the tail vein. The first drop of blood was wiped away and then the second drop was placed on a glucometer test strip. A second test was administered immediately and most scores were an average of the two readings. If there was more than a 100 unit discrepancy between the two readings, a third reading was taken and the reported value was an average of the three.
Four adult male mice of the ddY strain were fasted for 6 hours before testing. A blood glucose reading from each mouse was determined at the start (time 0). The mice were weighed and the average weight was used with an injection volume of 0.3 mL to calculate the concentration of D-serine to dissolve into saline. The dose, 2.7 g/kg, was picked based on previously published behavior studies in which the intraperitoneal dose was the most reliable in inducing a mouse behavior response during pre-pulse startle inhibition (Kanahara, N., et al., (2008), Psychopharmacology, 198, 363-374) and acute ethanol sedation (Lockridge, A., et al., (2012), Alcohol, 46:389-400). After time 0 testing, each mouse received either D-serine or saline (alternating by cage) at 5 minute intervals. Blood glucose readings were taken at 15, 30, 60 and 120 minutes after each mouse's initial injection. The data presented is the average blood glucose (mg/dL), determined by glucometer as previously described (FIG. 1). Each data point is the average of the two mice with the same treatment condition, while the standard error bars indicate the degree of individual variability between subjects. The saline injected control mice (black) maintained a steady glucose level (70-80% of baseline) throughout the testing period.

[7] = Core body temperature by rectal probe during chronic D-serine drinking; format: in vivo, mice; settings: throughout the chronic D-serine drinking experiment
Description: Eight adult male mice of the C57 strain were tested in a chronic administration model. Mice were housed 2 per cage, with each cage outfitted with 2 special drinking tubes (50 mL conical+stopper with sipper tube) to minimize the impact of any problems with a single tube. Two cages of mice drank tap water and two cages of mice drank a D-serine solution (12.6 mg/ml in tap water), with solutions replaced every other day. Every other day, the food and drinking bottles were weighed to determine cage-wide consumptive behaviors and the mice were individually weighed. At specified intervals, mice were also tested for core body temperature by rectal probe and for 4-hours fasted blood glucose. All mice started with a week of water drinking. […] After one week, two cages (4 mice) were switched to D-serine solution. […] After this measure, all mice were again switched back to water. […] Both acute weight loss and increased drinking are prominent symptoms of the onset of diabetes.
The hypothalamus is known to regulate metabolism through its influence on circadian rhythm, hunger, thirst, body temperature and glucose utilization among others. […] Core body temperature, determined by rectal thermometer, was stable throughout the chronic D-serine drinking experiment (FIG. 8A) and between wildtype and DAO mutant mice (FIG. 8B).

[8] = Plasma D-serine during chronic, sustained drinking (capillary electrophoresis); format: in vivo, mice; settings: 12.6 mg/mL drinking solution
From the text: The data from FIG. 4 were generated from an unpublished study of the impacts of D-serine on ethanol drinking. […] Blood was collected from the facial vein and assayed via capillary electrophoresis as described above after mice (n=2-4 per condition as shown in the x-axis) had been presented with a choice of water vs. D-serine (or ethanol) drinking solution for 2 weeks and then 2 weeks of exclusively drinking treated solution according to their indicated treatment category.

[9] = 12.6 mg/ml in drinking water, first week of treatment

With `N[C@H](CO)C(=O)O` [D-serine] the “average viability, % viable cells per islet” value (human islets [1]) was 84±2.4%, the “islets recovered, average pool IEQ” value (human islets [1]; Pico-green DNA assay) was 1137±172 IEQ and the “effect on insulin secretion, supplement alone” value (human islets [2]) was “no effect”. The “plasma D-serine, post-injection” value [3] was ~12 mM, the solution drinking (blood glucose [4]; 12.6 mg/ml in drinking water) was “increased” and the blood sugar (blood glucose [4]; 12.6 mg/ml in drinking water, 16 days of drinking, 4-hours fasted) was 170 ± 9 mg/dL. The blood sugar (blood glucose [4]; 12.6 mg/ml in drinking water, after 7 days of drinking, 4-hours fasted) was 149 ± 12 mg/dL, the body weight (blood glucose [4]; [9]) was “weight loss” and the eating (blood glucose [4]; [9]) was “reduced eating”. The blood glucose (blood glucose [4]; 12.6 mg/ml in drinking water, two days after the switch, 4-hours fasted) was “still at baseline levels”, the “blood glucose after switch back to water” value (blood glucose [4]; after a week of water drinking following 16 days of D-serine) was “recovered back to baseline glucose levels” and the islet viability (human islets [5]; human, 60 min) was ~100%. The blood sugar (blood glucose [6]; 15 and 30 minutes after injection) was “stable”, the “blood sugar, % of baseline” value (blood glucose [6]; 60 minutes after injection) was 52 % of baseline and the “blood sugar, % of baseline” value (blood glucose [6]; 120 minutes after injection) was 36 % of baseline. For the same molecule, the core body temperature [7] was “stable”, the “plasma level relative to human patients undergoing D-serine oral therapy” value ([8]; versus clinical trials (Emilov 2013)) was 2-3 times higher and the concentration at 4 weeks ([8]; mouse, plasma, oral, 2 weeks choice then 2 weeks exclusive drinking, read-out: basal D-serine plasma level) was 400 to 600 µM.
In the case of `CN[C@H](CC(=O)O)C(=O)O` [NMDA, N-methyl-D-aspartate], the “effect on insulin secretion, supplement alone” value (human islets [2]) is reported as “no effect on 2 out of 3 days tested”, the islet viability (human islets [5]; 60 minutes incubation, all GSIR solution types and 0 glucose) is reported as ~100% and the “islet viability (viable islet cells)” value (human islets [5]; 90 minutes incubation, 28 mM glucose, 100 uM supplement) is reported as “decreased”.
